# Key:
# Assay type in all cases: in vivo
# [1] = system: wheat (winter wheat, Triticum aestivum); test: Test C preemergence, plant response rating; details: Preemergence
# Description: (§1) Seeds of plant species selected from blackgrass (Alopecurus myosuroides), ryegrass, Italian (Italian ryegrass, Lolium multiflorum), wheat (winter wheat, Triticum aestivum), galium (catchweed bedstraw, Galium aparine), corn (Zea mays), crabgrass, large (large crabgrass, Digitaria sanguinalis), foxtail, giant (giant foxtail, Setaria faberii), johnsongrass (Sorghum halepense), lambsquarters (Chenopodium album), morningglory (Ipomoea coccinea), nutsedge, yellow (yellow nutsedge, Cyperus esculentus), pigweed (Amaranthus retroflexus), ragweed (common ragweed, Ambrosia elatior), soybean (Glycine max), barnyardgrass (Echinochloa crus-galli), oilseed rape (Brassica napus), pigweed, palmer (palmer pigweed, Amaranthus palmeri), waterhemp (common waterhemp, Amaranthus rudis), velvetleaf (Abutilon theophrasti), kochia (Kochia scoparia), surinam grass (Brachiaria decumbens), nightshade (eastern black nightshade, Solanum ptycanthum), wild poinsettia (Euphorbia heterophylla), windgrass (Apera spica-venti), and oat, wild (wild oat Avena fatua), were planted into a blend of loam soil and sand or a silt loam soil and treated preemergence with test chemicals formulated in a non-phytotoxic solvent mixture which included a surfactant.
# (§2) At the same time, plants selected from these crop and weed species and also chickweed (common chickweed, Stellaria media), buckwheat, wild (wild buckwheat, Polygonum convolvulus), wild mustard (Sinapis arvensis), field poppy (Papaver rhoeas), field violet (Viola arvensis), geranium, cutleaf (cutleaf geranium, Geranium dissectum), Canada thistle (Cirsium arvense), and speedwell (bird's-eye speedwell, Veronica persica), were planted in pots containing Sunshine Redi-Earth® planting medium comprising spaghnum peat moss, vermiculite, starter nutrients and dolomitic limestone and treated with postemergence applications of test chemicals formulated in the same manner. Plants ranged in height from 2 to 18 cm (1- to 4-leaf stage) for postemergence treatments. Treated plants and controls were maintained in a greenhouse for 13 to 15 d, after which time all species were compared to controls and visually evaluated. Plant response ratings, summarized in Table C, are based on a scale of 0 to 100 where 0 is no effect and 100 is complete control. A dash (-) response means no test result.
# [2] = system: velvetleaf (Abutilon theophrasti); test: Test C preemergence, plant response rating; details: Preemergence
# Description: as §1, §2
# [3] = system: crabgrass, large (large crabgrass, Digitaria sanguinalis); test: Test C preemergence, plant response rating; details: Preemergence
# Description: as §1, §2
# [4] = system: waterhemp (common waterhemp, Amaranthus rudis); test: Test C preemergence, plant response rating; details: Preemergence
# Description: as §1, §2
# [5] = system: nutsedge, yellow (yellow nutsedge, Cyperus esculentus); test: Test C preemergence, plant response rating; details: Preemergence
# Description: as §1, §2
# [6] = system: lambsquarters (Chenopodium album); test: Test C preemergence, plant response rating; details: Preemergence
# Description: as §1, §2
# [7] = system: blackgrass (Alopecurus myosuroides); test: Test C preemergence, plant response rating; details: Preemergence
# Description: as §1, §2
# [8] = system: ryegrass, Italian (Italian ryegrass, Lolium multiflorum); test: Test C preemergence, plant response rating; details: Preemergence
# Description: as §1, §2
# [9] = system: ragweed (common ragweed, Ambrosia elatior); test: Test C preemergence, plant response rating; details: Preemergence
# Description: as §1, §2
# soybean (Glycine max) = test: Test C preemergence, plant response rating; details: Preemergence
# Description: as §1, §2
# [10] = system: oilseed rape (Brassica napus); test: Test C preemergence, plant response rating; details: Preemergence
# Description: as §1, §2
# [11] = system: morningglory (Ipomoea coccinea); test: Test C preemergence, plant response rating; details: Preemergence
# Description: as §1, §2
# [12] = system: foxtail, giant (giant foxtail, Setaria faberii); test: Test C preemergence, plant response rating; details: Preemergence
# Description: as §1, §2
# corn (Zea mays) = test: Test C preemergence, plant response rating; details: Preemergence
# Description: as §1, §2
# [13] = system: blackgrass (Alopecurus myosuroides); test: Test A postemergence, visual injury rating; details: 0 is no effect, 100 is complete control
# Procedure, shortened: (§3)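 Compounds in non-phytotoxic solvent with surfactant applied as soil spray preemergence, or postemergence to plants 2-10 cm at one- to two-leaf stage, in loam/sand. After approximately 10 days in greenhouse, injury rated visually versus untreated controls, 0 (no effect) to 100 (complete control).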
# [14] = system: galium (catchweed bedstraw, Galium aparine); test: Test A postemergence, visual injury rating; details: 0 is no effect, 100 is complete control
# Procedure, shortened: as §3
# [15] = system: barnyardgrass (Echinochloa crus-galli); test: Test A postemergence, visual injury rating; details: 0 is no effect, 100 is complete control
# Procedure, shortened: as §3
smiles,measurement,setting,value
CCCC(=O)c1c(Br)cccc1Oc1ncc(Cl)cn1 [Compound 75],"Plant response rating, Wheat","[1]; 125 g ai/ha, scale of 0 to 100",10
same,"Plant response rating, Wheat","[1]; 16 g ai/ha, scale 0 to 100",0
same,"Plant response rating, Wheat","[1]; 31 g ai/ha, scale 0 to 100",0
same,"Plant response rating, Wheat","[1]; 62 g ai/ha, scale 0 to 100",10
same,"Plant response rating, Velvetleaf","[2]; 125 g ai/ha, scale of 0 to 100",25
same,"Plant response rating, Velvetleaf","[2]; 16 g ai/ha, scale 0 to 100",0
same,"Plant response rating, Velvetleaf","[2]; 31 g ai/ha, scale 0 to 100",5
same,"Plant response rating, Velvetleaf","[2]; 62 g ai/ha, scale 0 to 100",35
same,"Plant response rating, Crabgrass, Large","[3]; 62 g ai/ha, scale of 0 to 100",98
same,"Plant response rating, Crabgrass, Large","[3]; 125 g ai/ha, scale of 0 to 100",98
same,"Plant response rating, Crabgrass, Large","[3]; 16 g ai/ha, scale 0 to 100",65
same,"Plant response rating, Crabgrass, Large","[3]; 31 g ai/ha, scale 0 to 100",85
same,"Plant response rating, Waterhemp","[4]; 125 g ai/ha, scale of 0 to 100",98
same,"Plant response rating, Waterhemp","[4]; 16 g ai/ha, scale 0 to 100",75
same,"Plant response rating, Waterhemp","[4]; 31 g ai/ha, scale 0 to 100",95
same,"Plant response rating, Waterhemp","[4]; 62 g ai/ha, scale 0 to 100",98
same,"Plant response rating, Nutsedge, Yellow","[5]; 125 g ai/ha, scale of 0 to 100",20
same,"Plant response rating, Nutsedge, Yellow","[5]; 16 g ai/ha, scale 0 to 100",0
same,"Plant response rating, Nutsedge, Yellow","[5]; 31 g ai/ha, scale 0 to 100",0
same,"Plant response rating, Nutsedge, Yellow","[5]; 62 g ai/ha, scale 0 to 100",0
same,"Plant response rating, Lambsquarters","[6]; 125 g ai/ha, scale of 0 to 100",70
same,"Plant response rating, Lambsquarters","[6]; 16 g ai/ha, scale 0 to 100",0
same,"Plant response rating, Lambsquarters","[6]; 31 g ai/ha, scale 0 to 100",10
same,"Plant response rating, Lambsquarters","[6]; 62 g ai/ha, scale 0 to 100",35
same,"Plant response rating, Blackgrass","[7]; 62 g ai/ha, scale of 0 to 100",80
same,"Plant response rating, Blackgrass","[7]; 125 g ai/ha, scale of 0 to 100",75
same,"Plant response rating, Blackgrass","[7]; 16 g ai/ha, scale 0 to 100",0
same,"Plant response rating, Blackgrass","[7]; 31 g ai/ha, scale 0 to 100",5
same,"Plant response rating, Ryegrass, Italian","[8]; 125 g ai/ha, scale of 0 to 100",15
same,"Plant response rating, Ryegrass, Italian","[8]; 16 g ai/ha, scale 0 to 100",0
same,"Plant response rating, Ryegrass, Italian","[8]; 31 g ai/ha, scale 0 to 100",5
same,"Plant response rating, Ryegrass, Italian","[8]; 62 g ai/ha, scale 0 to 100",5
same,"Plant response rating, Ragweed","[9]; 125 g ai/ha, scale of 0 to 100",5
same,"Plant response rating, Ragweed","[9]; 16 g ai/ha, scale 0 to 100",0
same,"Plant response rating, Ragweed","[9]; 31 g ai/ha, scale 0 to 100",0
same,"Plant response rating, Ragweed","[9]; 62 g ai/ha, scale 0 to 100",0
same,"Plant response rating, Soybean","soybean (Glycine max); 125 g ai/ha, scale of 0 to 100",50
same,"Plant response rating, Soybean","soybean (Glycine max); 16 g ai/ha, scale 0 to 100",0
same,"Plant response rating, Soybean","soybean (Glycine max); 31 g ai/ha, scale 0 to 100",0
same,"Plant response rating, Soybean","soybean (Glycine max); 62 g ai/ha, scale 0 to 100",10
same,"Plant response rating, Oilseed Rape","[10]; 125 g ai/ha, scale of 0 to 100",40
same,"Plant response rating, Oilseed Rape","[10]; 16 g ai/ha, scale 0 to 100",0
same,"Plant response rating, Oilseed Rape","[10]; 31 g ai/ha, scale 0 to 100",0
same,"Plant response rating, Oilseed Rape","[10]; 62 g ai/ha, scale 0 to 100",10
same,"Plant response rating, Morningglory","[11]; 125 g ai/ha, scale of 0 to 100",10
same,"Plant response rating, Morningglory","[11]; 16 g ai/ha, scale 0 to 100",0
same,"Plant response rating, Morningglory","[11]; 31 g ai/ha, scale 0 to 100",0
same,"Plant response rating, Morningglory","[11]; 62 g ai/ha, scale 0 to 100",20
same,"Plant response rating, Foxtail, Giant","[12]; 62 g ai/ha, scale of 0 to 100",65
same,"Plant response rating, Foxtail, Giant","[12]; 125 g ai/ha, scale of 0 to 100",98
same,"Plant response rating, Foxtail, Giant","[12]; 16 g ai/ha, scale 0 to 100",0
same,"Plant response rating, Foxtail, Giant","[12]; 31 g ai/ha, scale 0 to 100",25
same,"Plant response rating, Corn","corn (Zea mays); 62 g ai/ha, scale of 0 to 100",0
same,"Plant response rating, Corn","corn (Zea mays); 125 g ai/ha, scale of 0 to 100",5
same,"Plant response rating, Corn","corn (Zea mays); 16 g ai/ha, scale 0 to 100",0
same,"Plant response rating, Corn","corn (Zea mays); 31 g ai/ha, scale 0 to 100",0
same,Blackgrass plant response rating (0 to 100 scale),[13]; 125 g ai/ha,40
same,Blackgrass plant response rating (0 to 100 scale),[13]; 500 g ai/ha,60
same,Galium plant response rating (0 to 100 scale),[14]; 125 g ai/ha,80
same,Galium plant response rating (0 to 100 scale),[14]; 500 g ai/ha,100
same,Barnyardgrass plant response rating (0 to 100 scale),[15]; 125 g ai/ha,90
same,Barnyardgrass plant response rating (0 to 100 scale),[15]; 500 g ai/ha,100
